# Patent publication US11787850B2, “Peptidic TGF-beta antagonists” (priority 2015, dated 2023)
# Tests used:
# [1] = test system: TGF-β-induced EMT in HaCaT cells; assay: Immunofluorescence of F-actin and E-cadherin in HaCaT cells with pathway inhibitors; format: cell-based, human; settings: for effect mediated by CD109 siRNA transfection on actin stress fibers appearance and relocalization of E-cadherin / effect on EMT markers in the absence of TGF-β: 0.5 μM SB431542, 1 μM SB203580, 10 μM U0126; for effect on EMT markers in the absence of TGF-β: data not shown
# [2] = test system: TGF-β-induced fibronectin and Slug expression in HaCaT cells; assay: Western blot for fibronectin and Slug in HaCaT cells with pathway inhibitors; format: cell-based, human; settings: for effect of CD109 knock-down on TGF-β-induced Slug expression: 100 pM TGF-β1, 4 hrs, 0.5 μM SB431542, 10 μM U0126; for fibronectin production: CD109 siRNA HaCaT cells, 100 pM TGF-β1, 16 hrs, 0.5 μM SB431542, 1 μM SB203580, 10 μM U0126
# [3] = test system: TGF-β-induced migration of HaCaT cells; assay: Scratch assay in HaCaT cells with pathway inhibitors; format: cell-based, human; settings: 100 pM TGF-β1, 36 hrs; 0.5 μM SB431542, 1 μM SB203580, 10 μM U0126
# Description: (FIG. 18A) HaCaT cells transfected with control or CD109 siRNA were scratched and treated with or without 100 pM TGF-β1, 0.5 μM SB431542, 1 μM SB203580 and/or 10 μM U0126 for 36 hrs. Dotted line: wound margin at 0 hr, regular line: wound margin at 36 hrs.
# Confluent monolayers of HaCaT or A431 cells were wounded by scrapping the cells with a 200 μl pipette tip. Cells were then incubated with 100 pM TGF-β1, in presence or absence of 10 μM U0126, 1 μM SB203580, 0.5 μM SB431542 in serum free medium for 24-48 hrs. Pictures were taken at the same spot at 0 hr, 24 hrs and 48 hrs. The cell-free area (wound) area was measured using ImageJ™ software and the percentage of original wound area filled with keratinocytes was calculated. At least 3 independents series of experiments were performed in triplicates.
# Finally, it was determined whether CD109's effect on migration was also mediated by the SMAD2/3 and MAPK pathways.
# [4] = test system: TGF-β-induced epithelial-mesenchymal transition (EMT) response in squamous cell carcinoma (A431) cells; assay: Immunoblot of EMT markers in A431 cells; format: cell-based; settings: 10 nM peptide, 100 pM TGF-b, 24 hrs (FIG. 33)
# Description: (FIG. 26A) Immunoblot analysis was carried out using cell lysates of A431 cells following incubation with TGF-β, P16, or scrambled control (P16.2) as indicated to determine expression of proteins involved in the EMT response. (FIG. 26B) Densitometry analysis was subsequently performed using the developed immunoblot to illustrate the relative expression of each protein as a function as P16 concentration as indicated.
# A431 cancer cells treated with 10 nM of P16.2 (negative peptide control), P12, P16 or PA in the absence or presence of 100 pM TGF-b, followed by 24 hrs of incubation. Cells lysates were analyzed by Western blot for the expression of Fibronectin (mesenchymal marker), Snail and Twist (EMT markers). Actin expression was used as loading control.
# [5] = Size-exclusion chromatography on Superdex Peptide 10/300GL column; format: physicochemical
# Description: Approximately 200 μg of each peptide X (40 amino acids), X-1 (28 amino acids), peptide A (161 amino acids), P11 (11 amino acids), P16 (16 amino acids), P21 (21 amino acids, P16-2 (16 amino acids, scrambled sequence control), X-3 (16 amino acids) and X-4 (11 amino acids) were dissolved in phosphate-buffered saline (PBS) and loaded onto a Superdex Peptide 10/300GL column. The column was eluted with PBS at a flow rate of 0.6 mL/min and eluents were analyzed for peptide content by measuring relative absorbance at a wavelength of 215 nm. (FIGS. 3A and 3B) The data is plotted with relative absorbance (Y-axis) against elution volume (X-axis). Peptides 1-9 are color coded (A—peptides (1) to (5); B (peptides (6) to (9)). As shown on panel A, peptide X (peptide 1, black line) elution profile indicated two major peaks at approximately 8 mL and 11 mL which correspond to molecular weights greater than 12.4 kDa. The theoretical molecular weight of peptide X is 4.7 kDa which is expected to elute from the column at approximately 15 mL. Under the conditions tested, peptide X existed as high molecular weight aggregates with minimal soluble (monomeric) form. On the other hand, P16 (peptide 5, green line) elution profile indicated a broad peak between 14-22 mL which is expected to contain peptides of between 0.1 and 6 kDa and is consistent with its theoretical molecular weight of 2.01 kDa.
# FIG. 4 illustrates the standard curve used for size-exclusion chromatography of standard peptides using the Superdex Peptide 10/300 GL column (results provided in FIG. 3). A pool of standard peptides of various molecular weights (1. cytochrome c (Mr 12.384 kDa) 1 mg/mL; 2. aprotinin (Mr 6.512 kDa) 2 mg/mL; 3. vitamin B12 (Mr 1.355 kDa) 0.1 mg/mL; 4. (Gly)3 (Mr 0.189 kDa) 0.1 mg/mL; 5. Gly (Mr 0.075 kDa) 7.8 mg/mL) were subjected to size-exclusion chromatography using the Superdex Peptide 10/300 GL column (flow rate 0.5 ml/min at room temperature, sample volume of 50 μL, eluent 0.05M phosphate, 0.15 M NaCl, ph 7.0). The resulting chromatogram (absorbance at 215 nm (in mAU, left Y axis) and conductivity (in mS/cm, right Y axis, in function of volume of elution (in mL)) indicates the elution profiles of the above peptides with high MW peptides eluting in earlier fractions and lower MW peptides eluting in later fractions as expected. The molecular weights of peptides were plotted against elution volume generating a standard curve (not shown).
# More specifically, approximately […] of each peptide X (40 amino acids), X-1 (28 amino acids), peptide A (161 amino acids), P11 (11 amino acids), P16 (16 amino acids), P21 (21 amino acids, P16-2 (16 amino acids, scrambled sequence control), X-3 (16 amino acids) and X-4 (11 amino acids) were dissolved in phosphate-buffered saline (PBS) and loaded onto a Superdex Peptide 10/300GL column. The column was eluted with PBS at a flow rate of 0.6 ml/min and eluants were analyzed for peptide content by measuring relative absorbance at a wavelength of 215 nm. The data were plotted with relative absorbance (Y-axis) against elution volume (X-axis). […] The theoretical molecular weight of peptide X is 4.7 kDa which is expected to elute from the column at approximately 15 mL. […] P16 (peptide 5) elution profile indicated a peak between 14-22 mL which was expected to contain peptides of between 0.1 and 6 kDa and is consistent with its theoretical molecular weight of 2.01 kDa.
# More specifically, a pool of standard proteins of various molecular weights were subjected to size-exclusion chromatography using the Superdex Peptide 10/300 GL column. The resulting chromatogram indicated the elution profiles of the peptides with high molecular weight peptides eluting in earlier fractions and lower molecular weight peptides eluting in later fractions as expected. The molecular weights of peptides were plotted against elution volume generating a standard curve (not shown) and was used to calculate molecular weights of the CD109-based peptides. […]
# [6] = test system: TGF-β-induced migration of squamous cell carcinoma (A431) cells; assay: Scratch (wound closure) migration assay, A431 cells; format: cell-based; settings: 10 nM peptide, 100 pM TGF-β1, 24 hours (FIG. 10)
# Description: FIG. 10A and FIG. 10B illustrate that peptides B, E and X-1 inhibit TGF-β-induced cellular migration of A431 cells in vitro. Results are shown prior to treatment (0 hr, top panels) and after treatment (24 hr, bottom panels) for each of the peptides used. (See FIG. 2 and Table 1 for the amino acid sequence identity of the peptides).
# A431 cells were grown to 80-90% confluence and serum-starved overnight. The next day, cells were scratched with a plastic pipette tip (time 0 hour) and then left untreated or treated for 24 hours with 100 pM TGF-β1 alone or in the presence of P16 as indicated. (FIG. 27A) Digital images were captured at 0 h and 24 h using an EVOS XL Core microscope. (FIG. 27B) Micrographs were subsequently quantitated to determine the percentage of the wound area that had closed following 24 hours in the presence or absence of P16, as indicated.
# Cells were scratched with a pipette tip and treated without or with 100 pM TGF-b1 alone or in the presence of 10 nM Peptide A or Peptide A1 (C31S mutant). Pictures were taken at 0 and 24 hrs. Peptide A but not Peptide A1 inhibits TGF-b-induced migration in A431 cells. Peptide A contains monomeric and dimeric forms whereas Peptide A1 contains a C31S mutation to prevent intermolecular disulfide bond formation so that it forms monomers only.
# (§1) Squamous cell carcinoma (A431) or breast cancer (MDA-MB-231) cells were grown to 80-90% confluence and serum-starved overnight. The next day, cells were scratched with a plastic pipette tip (time 0 hour) and then left untreated or treated for 24 hours with 100 pM TGF-β1 alone or in the presence of 10 nM peptide B (100 aa), E (67 aa), or X1 (P28, 28 aa). Digital images were captured at 0 h and 24 h (20× magnification) using an EVOS XL Core microscope.
# [7] = test system: TGF-β-induced migration of breast cancer (MDA-MB-231) cells; assay: Scratch migration assay, MDA-MB-231 cells; format: cell-based; settings: 10 nM peptide, 100 pM TGF-β1, 24 hours (FIG. 11)
# Description: FIG. 11A and FIG. 11B illustrate that peptides B, E and X-1 inhibit TGF-β-induced cellular migration of MDA-MB-231 cells in vitro. Results are shown prior to treatment (0 hr, top panels) and after treatment (24 hr, bottom panels) for each of the peptides used.
# as §1
# [8] = test system: TGF-β1-induced Smad3-driven (CAGA12-lux) transcriptional activity; assay: Luciferase reporter assay in HEK293-(CAGA)12 cells; format: cell-based; settings: 10 nM or 5 nM peptide, 100 pM TGF-β1, 18 hours (FIG. 5)
# [9] = test system: bleomycin-induced skin fibrosis; assay: Bleomycin-induced skin fibrosis (scleroderma) mouse model; format: in vivo
# Description: Wild type mice were treated with bleomycin ([…]) to induce skin fibrosis or PBS (negative control). Mice were treated with CD109 ([…]), P16 ([…]), or PBS by 100 μL subcutaneous injection every other day for 28 days for a total of 14 injections.
# (§2) Mice were injected intradermally with bleomycin (5 mg) in […] PBS or PBS alone every second day for 28 days. Mice were co-injected without or with 1.0 mg recombinant CD109 protein or P16 peptide every second day for 28 days (14 mg total). Skin tissue was harvested and immunohistochemical analysis was performed for the detection of Fibronectin, α-sma, CTGF and Type-1 Collagen. Representative images of sections of skin derived from CD109 and p16 treated mice on day 28 after initial bleomycin or PBS treatment are shown. A total of 4-6 different mice per treatment group were analyzed. Original magnification x 20.
# as §2, with “phospho-Smad2, phospho-Smad1” for “Fibronectin, α-sma, CTGF”, “TGF-β levels.” for “Type-1 Collagen.”
# [10] = test system: cancer stem cells (CD133 positive cells), epidermoid A431; assay: Flow cytometry of CD133 positive cells, A431; format: cell-based; settings: 10 nM, 100 pM TGF-b1, 24 hours (FIG. 39)
# Description: (§3) A431 cancer cells (8000 cells) were seeded on a BioCoat™ Matrigel® Invasion Chamber and treated with 10 nM of P16.2 (negative peptide control), P16 or PA in the absence or presence of 100 pM TGF-b, followed by 24 hrs of incubation. Invasive cells (in the lower chambers) were stained by crystal violet dye, photographed and counted. Representative photos (A) and statistical plots of invasion (B) are shown. The data are shown as mean±SD of the number of invasive cells for three independent experiments. **P<0.01 and ***P<0.001 as compared with controls. […] Squamous cell carcinoma (epidermoid A431 and head and neck FaDu) cells were stimulated with 100 pM of TGF-b1, then treated with 10 nM of peptide 16.2, P16, PA or CD109 for 24 hours. Cells were analysed by Flow cytometry and CD133 positive cell population, which represent cancer stem cell population, were quantified.
# [11] = test system: cancer stem cells (CD133 positive cells), head and neck FaDu; assay: Flow cytometry of CD133 positive cells, FaDu; format: cell-based; settings: 10 nM, 100 pM TGF-b1, 24 hours (FIG. 39)
# Description: as §3
# [12] = co-injected with bleomycin every second day for 28 days (FIG. 37)
compound,measurement,setting,value
"N#CC(=C(/N)Sc1ccccc1N)/C(C#N)=C(\N)Sc1ccccc1N [Peptide U0126, U0126]",effect mediated by CD109 siRNA transfection on actin stress fibers appearance and relocalization of E-cadherin,"[1]; 100 pM TGF-β1, 36 hrs",reduces (but does not abrogate)
same,effect on EMT markers in the absence of TGF-β,[1],no effect
same,effect of CD109 knock-down on TGF-β-induced Slug expression,[2],abrogated
same,fibronectin production,[2],reduced
same,increase of TGF-β-induced cell migration by CD109 knock-down,[3],partially reversed
NC(=O)c1ccc(-c2nc(-c3ccc4c(c3)OCO4)c(-c3ccccn3)[nH]2)cc1 [SB431542],appearance of actin stress fibers in control siRNA transfected cells,"[1]; 100 pM TGF-β1, 36 hrs, 0.5 μM SB431542",totally prevents
same,effect mediated by CD109 siRNA transfection on actin stress fibers appearance and relocalization of E-cadherin,"[1]; 100 pM TGF-β1, 36 hrs",reduces (but does not abrogate)
same,effect on EMT markers in the absence of TGF-β,[1],no effect
same,effect of CD109 knock-down on TGF-β-induced Slug expression,[2],abrogated
same,fibronectin production,[2],totally abrogated
same,increase of TGF-β-induced cell migration by CD109 knock-down,[3],partially reversed
ETWIWLDTNMGS [Peptide P12],"inhibition of TGF-b induced EMT response (Fibronectin, Snail, Twist)",[4],not
ETWIWLDTNMGSRIYQEFEVTVPDSITS (Peptide X-1),formation of aggregates by size-exclusion chromatography,"[5]; peptide in PBS, Superdex Peptide 10/300GL, 0.6 ml/min",formed aggregates
same,Aggregation?,"[5]; size-exclusion chromatography, peptide dissolved in PBS",Aggregated
same,inhibition of TGF-β-induced cellular migration of A431 cells,[6],inhibit
same,inhibition of TGF-β-induced cellular migration of MDA-MB-231 cells,[7],inhibit
same,inhibition of TGF-β1-induced CAGA12-lux activity,[8],inhibited
Recombinant CD109: recombinant CD109 protein,SMAD1 phosphorylation in skin (immunohistochemistry),[9]; [12],enhancing
same,SMAD2 phosphorylation in skin (immunohistochemistry),[9]; [12],reduces
same,TGF-β expression in skin (immunohistochemistry),[9]; [12],reduces
same,"extracellular matrix production (Fibronectin, α-sma, CTGF, Type-1 Collagen, immunohistochemistry)","[9]; co-injected with bleomycin every second day for 28 days, skin on day 28 (FIG. 36)",reduces
same,"number of cancer stem cells (CD133 positive cells), A431",[10],inhibit
same,"number of cancer stem cells (CD133 positive cells), FaDu",[11],inhibit
